# Test system: Male Sprague-Dawley rats
# Conditions: 72 hours after IP injection of oxaliplatin
# Procedure: Male Sprague-Dawley rats (Charles River Lab, France), weighing 175 to 200 grams, were placed in a cage with food and water ad libitum, in a temperature-controlled environment at 22° C. with a 12 h/12 h day/night cycle. The experiments were conducted under blind conditions in a calm room by the same experimenter, while taking care to comply with the regulations on animal experimentation.
# This low-temperature immersion test made it possible to measure the hypersensitivity to cold in the animals. The bottom third of the rat's tail was immersed in a temperature-controlled bath 10° C. until it was removed or until the “cut-off” set at 30 seconds (Necker and Hellon. 1978 Pain. 4: 231-242).
# The experimental data was analyzed using the software program Sigma STAT, version 3.0 for Windows (STAT32 Software Inc., San Diego, Calif.). The kinetics of the reaction times to the temperature-based stimulation were analyzed using a two-factor variance analysis followed by a multiple comparison test to study the change over time. […] The significance threshold was P<0.05.
compound,measurement,setting,value
O=C(O)C(=O)O.[NH-][C@@H]1CCCC[C@H]1[NH-].[Pt+2] [oxaliplatin],effect on cold sensitivity threshold (10° C.),FIG. 1,reduced the cold sensitivity threshold
same,time after which the rat removed its tail,"tail immersed in water at 10° C., untreated rat around 12 seconds, cut-off 30 seconds",7 s
